Legend:
[1] = test system: Z. tritici strain Mg Tri-R6; test: Efficacy on first-leaf fragments of treated wheat plantlets cv. Alixan inoculated with Z. tritici, AUDPC-based (Example 4, pydiflumetofen); format: in vivo, Zymoseptoria tritici; details: from AUDPC (21 and 28 dpi)
Description: Winter wheat plants cv. Alixan (Limagrain) at the BBCH 12 growth stage were treated with mixture of Compound of Formula I and pydiflumetofen at several rates with a hand sprayer at 2 bars calibrated to deliver the equivalent of 200 L/ha. The Compound of Formula I was applied at 5 g a.i./ha. Pydiflumetofen was applied at 0.00032-0.0016 and 0.008 g a.i./ha. Three replicates (pots) of 6 wheat plants each were used for each condition tested.
After treatment, wheat plants were left to dry at room temperature for 1 hour and then incubated in a climatic chamber having a temperature of 24° C. day/18° C. night, photoperiod of 16 h light/8 h dark and a relative humidity of 65%. Fragments of the first leaf were cut and transferred in Petri dish containing adapted water agar (6 leaf fragments per Petri dish). Fragments were inoculated with a calibrated pycnospores suspension of Z. tritici strain Mg Tri-R6.
After inoculation, Petri dishes were incubated in a climatic chamber having a temperature of 20° C. day/17° C. night, photoperiod of 16 h light/8 h dark and controlled relative humidity.
Disease assessments were carried out 21 days post inoculation (dpi) and 28 dpi by measuring the length of the necrosis of the leaf fragment. The intensity of infection was then determined in percent of the total length of the leaf fragment.
(§1) The efficacy was calculated based on the Area Under the Disease Progress Curve (AUDPC) which is a quantitative measure of disease intensity over time. The most commonly used method for estimating the AUDPC, the trapezoidal method, was performed for each time interval by multiplying the average disease intensity between each pair of adjacent time points by the corresponding time interval.
(§2) The fungicide efficacies were determined from the AUDPC values and expressed as a percent of the untreated control.

[2] = test system: Z. tritici strain Mg Tri-R6; test: Efficacy on first-leaf fragments of treated wheat plantlets cv. Alixan inoculated with Z. tritici, AUDPC-based (Examples 1-3); format: in vivo, Zymoseptoria tritici; details: from AUDPC (21 and 28 dpi), percent of untreated control
Description: Winter wheat plants cv. Alixan (Limagrain) at the BBCH 12 growth stage are treated with a mixture of the compound of Formula I and a fungicide selected from the group consisting of fluindapyr, pydiflumetofen, mefentrifluconazole, fenpicoxamid, inpyrfluxam and isofetamid.
The compound of Formula I and the fungicide (A) are applied at different rates and at different weight ratio with a hand sprayer at 2 bars calibrated. For each condition tested, three replicates (pots) of 6 wheat plants are used.
Fragments of the first leaf are cut and are transferred into a Petri dish containing adapted water agar (6 leaf fragments per Petri dish). Fragments are inoculated with a calibrated pycnospores suspension of Z. tritici strain Mg Tri-R6.
(§3) After inoculation, Petri dishes are incubated in a climatic chamber having a temperature of 20° C. day/17° C. night, photoperiod of 16 h light/8 h dark, and controlled relative humidity. Disease assessments are carried out 21 days post inoculation (dpi) and 28 dpi by measuring the length of the necrosis of the leaf fragment. The intensity of infection is then determined as a percent of the total length of the leaf fragment.
as §1, with “is” for “was”
The fungicide efficacies are determined from the AUDPC values and expressed as a percent of the untreated control.
The compound of Formula I and mefentrifluconazole were applied with a hand sprayer at 2 bars calibrated to deliver the equivalent of 200 L/ha. Three replicates (pots) of 6 wheat plants each were used for each treatment group.
Fragments of the first leaf were cut and transferred into a Petri dish containing adapted water agar (6 leaf fragments per Petri dish). Fragments were inoculated with a calibrated pycnospores suspension of Z. tritici strain Mg Tri-R6.
as §3, with “dishes were” for “dishes are”, “assessments were” for “assessments are”, “infection was” for “infection is”, “as” for “as a”
as §1, §2
The compound of Formula I and fenpicoxamid were applied with a hand sprayer at 2 bars calibrated to deliver the equivalent of 200 L/ha. […]
After inoculation, Petri dishes were incubated in a climatic chamber having a temperature of 20° C. day/17° C. night, photoperiod of 16 h light/8 h dark and controlled relative humidity. […] The intensity of infection was then determined as percent of the total length of the leaf fragment. […]

[3] = fungicide (A) alone, rate 0.39 g a.i./ha

In the case of `Cc1ccc(S(=O)(=O)n2cc(F)c(=N)n(C)c2=O)cc1` [Compound of Formula I, 5-fluoro-4-imino-3-methyl-1-tosyl-3,4-dihydropyrimidin-2(1H)-one], the “Observed Efficacy” value ([1]; compound of Formula I alone, rate 5 g a.i./ha, Example 4) was 63.2%, the “Observed Efficacy” value ([2]; compound of Formula I alone, rate 5 g a.i./ha) was 56.4% and the “Observed Efficacy” value ([2]; compound of Formula I alone, rate 10 g a.i./ha) was 69.1%.

With `COc1ccnc(C(=O)N[C@H]2COC(=O)[C@H](Cc3ccccc3)[C@@H](OC(=O)C(C)C)[C@H](C)OC2=O)c1OCOC(=O)C(C)C` [Fenpicoxamid, (3S,6S,7R,8R)-8-benzyl-3-{3-[(isobutyryloxy)methoxy]-4-methoxypyridine-2-carboxamido}-6-methyl-4,9-dioxo-1,5-dioxonan-7-yl-isobutyrate] the “Observed Efficacy” value [2, 3] was 56.0%.

With `CC1CC(C)(C)c2c(F)ccc(NC(=O)c3cn(C)nc3C(F)F)c21` (stereo not drawn) [Fluindapyr, 3-(Difluoromethyl)-N-(7-fluoro-2,3-dihydro-1,1,3-trimethyl-1H-inden-4-yl)-1-methyl-1H-pyrazole-4-carboxamide] the “Observed Efficacy” value [2, 3] was 43.5%.

For `CC(O)(Cn1cncn1)c1ccc(Oc2ccc(Cl)cc2)cc1C(F)(F)F` (stereo not drawn) [Mefentrifluconazole, 2-[4-(4-chlorophenoxy)-2-(trifluoromethyl)phenyl]-1-(1,2,4-triazol-1-yl)propan-2-ol], the “Observed Efficacy” value [2, 3] was 46.8%.

In the case of `CON(C(=O)c1cn(C)nc1C(F)F)[C@@H](C)Cc1c(Cl)cc(Cl)cc1Cl` [Pydiflumetofen, 3-(difluoromethyl)-N-methoxy-1-methyl-N-[(2S)-1-(2,4,6-trichlorophenyl)propan-2-yl]-1H-pyrazole-4-carboxamide], the “Observed Efficacy” value ([1]; pydiflumetofen alone, rate 0.00032 g a.i./ha) was 21.3%, the “Observed Efficacy” value ([1]; pydiflumetofen alone, rate 0.0016 g a.i./ha) was 35.6% and the “Observed Efficacy” value ([1]; pydiflumetofen alone, rate 0.008 g a.i./ha) was 44.0%.

— patent US20220248673A1, “FUNGICIDAL COMBINATIONS, MIXTURES AND COMPOSITIONS AND USES THEREOF” (priority 2019, published 2022)
